Source: US20060275854A1, “Method for monitoring reactions in real time” (priority 2003, published 2006)
“Also recorded” adds a separate entry of the source.

Experiments:
porcine ALP [1] = conditions: known inhibitors; cited from earlier work
calf intestine ALP = conditions: known; cited from earlier work
porcine ALP [2] = conditions: 0.1 mM compound, 0.75 mM AMP, FIG. 5A
[3] = system: Adenosine Deaminase (ADA); assay: Adenosine deaminase activity and inhibition monitored by signaling aptamer; type: biochemical
Description: Adenosine deaminase transforms adenosine into inosine. […] Thus conversion from adenosine to inosine results in a decrease in fluorescent signal. […] EHNA is a known inhibitor of adenosine deaminase.
After 3 minutes, different concentrations of EHNA.HC1, an adenosine deaminase inhibitor, in DMSO were introduced: no inhibitor (blue line), 100 nM inhibitor (green line) and 10 μM inhibitor (red line). The solutions were further incubated for 5 more minutes. […] Finally, the solutions were exposed to an enzyme, called Adenosine Deaminase (ADA), which transforms adenosine into inosine. The aptamer has no affinity for the inosine, so the transformation should induce the disruption of the aptamer—adenosine complex state and the formation of a duplex state with the QDNA.

[4] = system: anti-ATP signaling aptamer; assay: Fluorescence signaling of the structure-switching ATP aptamer reporter on target addition; type: binding; conditions: for fluorescence intensity increase over the background reading: 750 μM target, FIG. 1B

For `Cl.c1ccc(C2CN3CCSC3=N2)cc1` (racemic) [Tetramisole, (±) 2,3,5,6-Tetrahydro-6-phenylimidazo[2,1-b]thiazole hydrochloride], the Ki (porcine ALP [1]) is given as “low mM range”, the “inhibition of calf intestine ALP (in words)” value (calf intestine ALP) is given as “not calf intestine ALP” and the “rate of transformation of AMP to adenosine relative to the uninhibited reaction” value (porcine ALP [2]) is given as “considerably reduced”.
In the case of `CCCCCC[C@@H]([C@@H](C)O)n1cnc2c(N)ncnc21.Cl` [EHNA], the rate of deamination ([3]; 100 nM inhibitor, 1 mM adenosine) is reported as “slower”, the rate of deamination ([3]; 10 μM inhibitor, 1 mM adenosine) is reported as “virtually stopped” and the rate of deamination ([3]; 10 μM inhibitor, 1 mM adenosine, listed as EHNA.HC1) is reported as “almost no deamination”. The rate of deamination ([3]; 100 mM EHNA, FIG. 6) was “reduced”.
In the case of `Nc1ncnc2c1ncn2[C@@H]1O[C@H](COP(=O)(O)O)[C@@H](O)[C@H]1O` [AMP, adenosine 5′-monophosphate], the “affinity of the signaling aptamer for the substance (in words)” value (from here on “affinity of the signaling aptamer”) [4] is reported as “moderate affinity” and the “fluorescence intensity increase over the background reading” value (“fluorescence intensity increase” below) [4] is reported as 5.3 fold.
For `Nc1ncnc2c1ncn2[C@@H]1O[C@H](CO)[C@@H](O)[C@H]1O` [adenosine], the “affinity of the signaling aptamer” value [4] was “higher affinity” and the “fluorescence intensity increase” value [4] was 8.1 fold.
In the case of `OC[C@H]1O[C@@H](n2cnc3c(O)ncnc32)[C@H](O)[C@@H]1O` [inosine], the “affinity of the signaling aptamer” value [4] is reported as “virtually no affinity; also recorded: no affinity at all”.
With `Nc1ncnc2c1ncn2[C@@H]1O[C@H](COP(=O)(O)OP(=O)(O)O)[C@@H](O)[C@H]1O` [ADP, adenosine 5′-diphosphate] the “fluorescence intensity increase” value [4] was 8.3 fold.
For `Cl.c1ccc(C2CN3CCSC3=N2)cc1` (single isomer, unassigned; (-)) [Levamisole, (−) 2,3,5,6-Tetrahydro-6-phenylimidazo[2,1-b]thiazole hydrochloride], the Ki (porcine ALP [1]) is listed as “low mM range”, the “inhibition of calf intestine ALP (in words)” value (calf intestine ALP) is listed as “not calf intestine ALP” and the “rate of transformation of AMP to adenosine relative to the uninhibited reaction” value (porcine ALP [2]) is listed as “considerably reduced”.
In the case of `Nc1ncnc2c1ncn2[C@@H]1O[C@H](COP(=O)(O)OP(=O)(O)OP(=O)(O)O)[C@@H](O)[C@H]1O` [ATP, adenosine 5′-triphosphate], the “fluorescence intensity increase” value [4] is reported as 6.9 fold.
